Experimental data reported in patent publication US12540131B2 (Merck Sharp & Dohme LLC, priority 2019, dated 2026).

Biological target: GST tagged truncated human mutant G2019S LRRK2 (Homo sapiens (Human), UniProt Q5S007, G2019S)
Assay: LRRK2 Km ATP LanthaScreen Assay
Assay type: biochemical
Conditions: G2019S LRRK2, 134 μM ATP (Km ATP), mean values
How it was run: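 Enzyme (GST-tagged, truncated) was preincubated with compound for 15 min at RT in 50 mM Tris pH 8.5, 10 mM MgCl2, 0.01% Brij-35, 1 mM EGTA, 2 mM DTT and 0.05 mM orthovanadate. Fluorescein-LRRKtide and 134 μM ATP (Km) were then added for 90 min. EDTA and Tb-anti-pERM antibody stopped the reaction; the TR-FRET 520/495 ratio gave 4-parameter IC50s, reported as mean pIC50.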

Chain of GST tagged truncated human mutant G2019S LRRK2 (Q5S007 970-2527 G2019S): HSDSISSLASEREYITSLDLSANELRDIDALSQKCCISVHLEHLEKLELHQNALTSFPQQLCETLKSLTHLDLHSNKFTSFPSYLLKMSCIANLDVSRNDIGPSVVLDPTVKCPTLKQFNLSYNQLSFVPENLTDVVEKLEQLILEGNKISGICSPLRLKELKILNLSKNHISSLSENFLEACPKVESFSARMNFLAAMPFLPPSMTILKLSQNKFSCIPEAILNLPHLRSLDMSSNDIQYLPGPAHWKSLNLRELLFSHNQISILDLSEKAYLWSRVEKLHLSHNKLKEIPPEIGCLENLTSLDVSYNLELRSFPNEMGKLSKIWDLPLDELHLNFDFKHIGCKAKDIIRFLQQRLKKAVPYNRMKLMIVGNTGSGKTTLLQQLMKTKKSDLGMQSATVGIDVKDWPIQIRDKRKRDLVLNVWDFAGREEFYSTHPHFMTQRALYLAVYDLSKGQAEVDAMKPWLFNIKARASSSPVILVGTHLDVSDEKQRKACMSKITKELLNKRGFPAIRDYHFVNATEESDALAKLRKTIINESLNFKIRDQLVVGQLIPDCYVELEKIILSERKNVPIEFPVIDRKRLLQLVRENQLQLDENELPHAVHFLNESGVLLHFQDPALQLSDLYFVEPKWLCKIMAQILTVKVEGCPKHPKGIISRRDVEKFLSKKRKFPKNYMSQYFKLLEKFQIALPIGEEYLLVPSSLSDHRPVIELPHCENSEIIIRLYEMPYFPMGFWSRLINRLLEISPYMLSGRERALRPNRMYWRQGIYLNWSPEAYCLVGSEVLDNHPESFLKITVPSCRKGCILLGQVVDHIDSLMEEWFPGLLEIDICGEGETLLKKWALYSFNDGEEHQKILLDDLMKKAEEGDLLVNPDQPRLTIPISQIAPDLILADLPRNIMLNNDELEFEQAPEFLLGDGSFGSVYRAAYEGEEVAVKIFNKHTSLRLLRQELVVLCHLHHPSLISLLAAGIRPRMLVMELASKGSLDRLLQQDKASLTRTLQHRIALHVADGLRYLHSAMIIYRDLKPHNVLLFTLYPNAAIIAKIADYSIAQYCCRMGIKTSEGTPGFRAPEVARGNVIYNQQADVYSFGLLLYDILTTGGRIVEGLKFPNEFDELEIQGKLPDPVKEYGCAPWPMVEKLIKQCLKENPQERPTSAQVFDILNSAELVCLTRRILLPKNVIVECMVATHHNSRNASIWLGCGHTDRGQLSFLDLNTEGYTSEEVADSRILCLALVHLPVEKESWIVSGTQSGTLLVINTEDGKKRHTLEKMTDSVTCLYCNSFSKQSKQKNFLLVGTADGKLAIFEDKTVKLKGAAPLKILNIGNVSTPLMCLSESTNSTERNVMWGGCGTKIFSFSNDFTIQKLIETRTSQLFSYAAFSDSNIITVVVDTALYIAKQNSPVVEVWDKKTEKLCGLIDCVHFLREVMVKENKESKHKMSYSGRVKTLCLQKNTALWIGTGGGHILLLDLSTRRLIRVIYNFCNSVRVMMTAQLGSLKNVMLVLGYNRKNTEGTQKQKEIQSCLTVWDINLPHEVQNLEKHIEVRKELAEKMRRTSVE

SMILES	LRRK2 pIC50	IC50 (read-out: LRRK2 pIC50 (converted)) [nM]
Cc1c(Nc2ncc3cc(Cl)c([C@@H]4CCN(C5COC5)C[C@H]4F)cc3n2)cnn1C1CC1(F)F (single isomer, unassigned) [Ex-4.178, (R)(3S,4S) or (S)(3S,4S) or (R)(3R,4R) or (S)(3R,4R) 6-chloro-N-[1-(2,2-difluorocyclopropyl)-5-methyl-1H-pyrazol-4-yl]-7-[(3R,4R)-3-fluoro-1-(oxetan-3-yl)piperidin-4-yl]quinazolin-2-amine]	8.58	
Cc1c(Nc2ncc3cc(Cl)c(C4CCN([C@@H]5COC[C@@H]5O)CC4)cc3n2)cnn1C1CC1 (single isomer, unassigned) [Ex-4.131, (3S,4S) or (3R,4R) 4-(4-{6-chloro-2-[(1-cyclopropyl-5-methyl-1H-pyrazol-4-yl)amino]quinazolin-7-yl}piperidin-1-yl)oxolan-3-ol]	8.62	
Cn1nc(C(F)(F)F)cc1Nc1ncc2cc(Cl)c([C@@H]3CCN([C@@]4(C)COC[C@H]4O)C[C@H]3F)cc2n1 (single isomer, unassigned) [Ex-4.252, (3S,4S)(3S,4S) or (3S,4S)(3R,4R) or (3R,4R)(3S,4S) or (3R,4R)(3R,4R) 4-[4-(6-chloro-2-{[1-methyl-3-(trifluoromethyl)-1H-pyrazol-5-yl]amino}quinazolin-7-yl)-3-fluoropiperidin-1-yl]-4-methyloxolan-3-ol]	6.61	
Cc1c(Nc2ncc3cc(Cl)c(C4CCN(C5COC[C@H]5O)[C@@H](C)C4)cc3n2)cnn1C1CC1 (single isomer, unassigned) [Ex-4.129, (3S,4S)(2S,4R) or (3S,4S)(2S,4S) or (3R,4R)(2S,4R) or (3R,4R)(2S,4S) (3 4-[4-{6-chloro-2-[(1-cyclopropyl-5-methyl-1H-pyrazol-4-yl)amino]quinazolin-7-yl}-2-methylpiperidin-1-yl]oxolan-3-ol]	>9.20	
CC1(n2ncc(Nc3ncc4cc(Cl)c(C5(F)CCN(C6COC6)CC5)cc4n3)c2Cl)CC1 [Ex-4.24, 6-chloro-N-[5-chloro-1-(1-methylcyclopropyl)-1H-pyrazol-4-yl]-7-[4-fluoro-1-(oxetan-3-yl)piperidin-4-yl]quinazolin-2-amine]	>9.20	
Cc1cc2cnc(Nc3cnn(C)c3Cl)nc2cc1[C@@H]1CCN([C@@H]2COC[C@@H]2O)C[C@H]1F (single isomer, unassigned) [Ex-4.259, (3S,4S)(3S,4S) or (3S,4S)(3R,4R) or (3R,4R)(3S,4S) or (3R,4R)(3R,4R) 4-(4-(2-((5-chloro-1-methyl-1H-pyrazol-4-yl)amino)-6-methylquinazolin-7-yl)-3-fluoropiperidin-1-yl)tetrahydrofuran-3-ol]	>9.20	
Cc1cc2cnc(Nc3cnn(C)c3C)nc2cc1[C@@H]1CCN([C@H]2COC[C@H]2O)C[C@H]1F (single isomer, unassigned) [Ex-4.258, (3S,4S)(3S,4S) or (3S,4S)(3R,4R) or (3R,4R)(3S,4S) or (3R,4R)(3R,4R) 4-(4-(2-((1,5-dimethyl-1H-pyrazol-4-yl)amino)-6-methylquinazolin-7-yl)-3-fluoropiperidin-1-yl)tetrahydrofuran-3-ol]	7.39	
Cc1cc2cnc(Nc3cnn(C4CC4)c3Cl)nc2cc1[C@@H]1CCN(C2COC2)C[C@H]1F (single isomer, unassigned) [Ex-4.82, (3S,4S) or (3R,4R) N-(5-chloro-1-cyclopropyl-1H-pyrazol-4-yl)-7-[3-fluoro-1-(oxetan-3-yl)piperidin-4-yl]-6-methylquinazolin-2-amine]	>9.20	
Clc1cc2cnc(Nc3cnn(C4CCC4)c3Cl)nc2cc1C1CCNCC1 [Ex-4.89, 6-chloro-N-(5-chloro-1-cyclobutyl-1H-pyrazol-4-yl)-7-(piperidin-4-yl)quinazolin-2-amine]	9.13	
Cc1cc2cnc(Nc3cnn(C4CC4)c3Cl)nc2cc1C1CCN(C2COCC2O)CC1 (single isomer, unassigned) [Ex-2.4, (3S,4S) or (3R,4R)-(4-(4-(2-((5-chloro-1-cyclopropyl-1H-pyrazol-4-yl)amino)-6-methylquinazolin-7-yl)piperidin-1-yl)tetrahydrofuran-3-ol]	>9.20	
Cc1cc(Nc2ncc3cc(Cl)c(C4CCN(C)CC4F)cc3n2)sn1 (stereo in doubt) [Ex-4.52, (3S,4R) or (3R,4R) 6-chloro-7-(3-fluoro-1-methylpiperidin-4-yl)-N-(3-methyl-1,2-thiazol-5-yl)quinazolin-2-amine]	9.06	
Cc1c(Nc2ncc3cc(Cl)c(C4CCN(C5CCCC5(F)F)CC4)cc3n2)cnn1C1CC1 (single isomer, unassigned) [Ex-1.22, (S) or (R) 6-chloro-N-(1-cyclopropyl-5-methyl-1H-pyrazol-4-yl)-7-[1-(2,2-difluorocyclopentyl)piperidin-4-yl]quinazolin-2-amine]		7.94
Cc1cc2cnc(Nc3cnn(C4CC4)c3C)nc2cc1C1CCN([C@@H]2COC[C@@H]2O)CC1 (single isomer, unassigned) [Ex-5.7, (3S,4S) or (3R,4R) 4-(4-{2-[(1-cyclopropyl-5-methyl-1H-pyrazol-4-yl)amino]-6-methylquinazolin-7-yl}piperidin-1-yl)oxolan-3-ol]	>9.20	
[2H]C1(N2CCC(c3cc4nc(Nc5cnn(C6CC6)c5Cl)ncc4cc3Cl)CC2)COC1 [Ex-4.57, 6-chloro-N-(5-chloro-1-cyclopropyl-1H-pyrazol-4-yl)-7-(1-(oxetan-3-yl-3-d)piperidin-4-yl)quinazolin-2-amine]	>9.20	
FC(F)Cn1ncc(Nc2ncc3cc(Cl)c(C4CCN(C5COC5)CC4)cc3n2)c1Cl [Ex-4.55, 6-chloro-N-[5-chloro-1-(2,2-difluoroethyl)-1H-pyrazol-4-yl]-7-[1-(oxetan-3-yl)piperidin-4-yl]quinazolin-2-amine]	>9.20	
O=S1(=O)CC(N2CCC(c3cc4nc(Nc5cnn(CC(F)F)c5Cl)ncc4cc3Cl)CC2)C1 [Ex-4.14, 3-(4-(6-chloro-2-((5-chloro-1-(2,2-difluoroethyl)-1H-pyrazol-4-yl)amino)quinazolin-7-yl)piperidin-1-yl)thietane 1,1-dioxide]	>9.20	
FC(F)Cn1ncc(Nc2ncc3cc(Cl)c([C@H]4CCN(C5COC5)C[C@@H]4F)cc3n2)c1Cl (single isomer, unassigned) [Ex-4.38, (3S,4S) or (3R,4R) 6-chloro-N-[5-chloro-1-(2,2-difluoroethyl)-1H-pyrazol-4-yl]-7-[3-fluoro-1-(oxetan-3-yl)piperidin-4-yl]quinazolin-2-amine]	9.11	
Cc1cc(Nc2ncc3cc(Cl)c(C4CCN(C5COCC5O)CC4F)cc3n2)n(C)n1 (single isomer, unassigned) [Ex-4.236, (3S,4S)(3S,4S) or (3S,4S)(3R,4R) or (3R,4R)(3S,4S) or (3R,4R)(3R,4R) 4-(4-{6-chloro-2-[(1,3-dimethyl-1H-pyrazol-5-yl)amino]quinazolin-7-yl}-3-fluoropiperidin-1-yl)oxolan-3-ol]	6.61	
COC(C)(C)Cn1ncc(Nc2ncc3cc(Cl)c(C4CCN(C5COC5)CC4)cc3n2)c1Cl [Ex-2.10, 6-chloro-N-[5-chloro-1-(2-methoxy-2-methylpropyl)-1H-pyrazol-4-yl]-7-[1-(oxetan-3-yl)piperidin-4-yl]quinazolin-2-amine]	>9.20	
Cc1c(Nc2ncc3cc(Cl)c([C@@H]4CCN(C5COC[C@@H]5O)C[C@H]4F)cc3n2)cnn1C1CC1 (single isomer, unassigned) [Ex-4.127, (3S,4S)(3S,4S) or (3S,4S)(3R,4R) or (3R,4R)(3S,4S) or (3R,4R)(3R,4R) 4-[4-{6-chloro-2-[(1-cyclopropyl-5-methyl-1H-pyrazol-4-yl)amino]quinazolin-7-yl}-3-fluoropiperidin-1-yl]oxolan-3-ol]	>9.20	
Cc1c(Nc2ncc3cc(Cl)c(C4CCN([C@@H]5COC[C@@H]5O)CC4)cc3n2)cnn1C12CC(C1)C2 (single isomer, unassigned) [Ex-2.28, (3S,4S) or (3R,4R) 4-[4-(2-{[1-(bicyclo[1.1.1]pentan-1-yl)-5-methyl-1H-pyrazol-4-yl]amino}-6-chloroquinazolin-7-yl)piperidin-1-yl]oxolan-3-ol]	>9.20	
Cc1cc2cnc(Nc3cnn(C)c3Cl)nc2cc1C1CCN([C@]2(C)COC[C@@H]2O)CC1 (single isomer, unassigned) [Ex-2.80, (3S,4S) or (3R,4R) 4-(4-{2-[(5-chloro-1-methyl-1H-pyrazol-4-yl)amino]-6-methylquinazolin-7-yl}piperidin-1-yl)-4-methyloxolan-3-ol]	7.14	
Cc1cc(Nc2ncc3cc(Cl)c(C4CCN([C@]5(C)COC[C@@H]5O)CC4)cc3n2)n(C)n1 (single isomer, unassigned) [Ex-1.25, (3S,4S) or (3R,4R) 4-(4-{6-chloro-2-[(1,3-dimethyl-1H-pyrazol-5-yl)amino]quinazolin-7-yl}piperidin-1-yl)-4-methyloxolan-3-ol]	8.99	
C[C@@]1(N2CCC(c3cc4nc(Nc5ccnn5C5CC5(F)F)ncc4cc3Cl)CC2)COC[C@@H]1O (single isomer, unassigned) [Ex-2.84, (S)(3S,4S) or (S)(3R,4R) or (R)(3S,4S) or (R)(3R,4R) 4-[4-(6-chloro-2-{[1-(2,2-difluorocyclopropyl)-1H-pyrazol-5-yl]amino}quinazolin-7-yl)piperidin-1-yl]-4-methyloxolan-3-ol]	8.80	
Cn1ncc(Nc2ncc3cc(Cl)c(C4CCN([C@]5(C)COC[C@@H]5O)CC4)cc3n2)c1C(F)F (single isomer, unassigned) [Ex-2.82, (3S,4S) or (3R,4R) 4-[4-(6-chloro-2-{[5-(difluoromethyl)-1-methyl-1H-pyrazol-4-yl]amino}quinazolin-7-yl)piperidin-1-yl]-4-methyloxolan-3-ol]	>9.20	
